# Test results taken from publication PMC13379085 (PLOS Neglected Tropical Diseases, 2026).
# Experiments:
# [1] = tested on: Extracellular L. mexicana promastigotes; experiment: Resazurin viability assay of extracellular L. mexicana promastigotes; format: cell-based, Leishmania mexicana
# Description: (§1) The effect of compounds on extracellular promastigotes was evaluated using a resazurin-based assay as described previously. In short, late log phase Leishmania promastigotes were seeded in a 96 well plate at 1 x 10^5 parasites per well and treated with drugs (0.5 – 200 µM) for 72 hours at 25°C. Ten microliters of Resazurin (0.02% w/v) were added to the treated parasites to achieve a final concentration of 0.002% w/v and incubated for 24 hours. Viability of the promastigotes was assessed by fluorescence (excitation 544 nm, emission 590 nm, SpectraMax M2, Molecular Devices).
# lysozyme = biological target: T1, lysozyme (Homo sapiens, UniProt P61626); experiment: Affinity capture proteomics with 197-bead in Leishmania infected macrophage lysate; format: binding; parameters: endogenous in cells; host or cells: PMA-differentiated THP-1 macrophages infected with L. mexicana (lysate); settings: 197-bead vs control bead
# T1 sequence (P61626 19-148): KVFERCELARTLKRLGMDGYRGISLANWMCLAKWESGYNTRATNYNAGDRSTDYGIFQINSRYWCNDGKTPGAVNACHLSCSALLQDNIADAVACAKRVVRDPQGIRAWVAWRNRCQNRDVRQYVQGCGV
# Description: To generate cell lysate, ten million THP-1 cells were plated overnight in a 10 cm dish, then differentiated with 150 nM phorbol 12-myristate 13-acetate (PMA) for 72 hours. The resulting macrophages were infected with L. mexicana promastigotes at a multiplicity of infection of 1:10 and incubated for 18 hours. After infection, cells were washed three times with PBS to remove extracellular promastigotes. Cells were then collected by scraping and pelleted with centrifugation. The cell pellet was resuspended in cell buffer (50mM Tris-HCl, 150mM NaCl, 2mM EDTA, 0.5% triton-x-100) and subjected to five freeze-thaw cycles. Samples were centrifuged 14,000g x 10 minutes to remove cellular debris. Protein concentration of supernatant was determined by BCA assay and cell lysate was stored at -80 ° C until further use.
# Functionalized agarose beads were made as follows. NHS activated agarose beads were washed three times to remove acetone and resuspended in PBS to create a slurry. 494 (197 with ligation chemical handle) was prepared in 0.3 mL at 25mM in DMSO and 1.7 mL PBS was added to 1 mL of agarose slurry for a final volume of 3 mL at a concentration of 2.5mM (10% v/v DMSO). […]
# The peptide samples were resuspended in 15 μL of 5% ACN/0.1% formic acid and analyzed by LC-MS/MS using an Easy nLC 1200 coupled to a QExactive HF mass spectrometer (Thermo Scientific). […]
# [2] = tested on: Extracellular L. donovani promastigotes; experiment: Resazurin viability assay of extracellular L. donovani promastigotes; format: cell-based, Leishmania donovani; settings: for 53 strain not specified
# Description: as §1
# [3] = tested on: Intracellular L. mexicana amastigotes; experiment: microbe, parasite or virus in culture; format: cell-based, Leishmania mexicana; settings: bone marrow derived macrophages, Giemsa staining, 72-hour incubation
# Description: Bone marrow derived macrophages (BMDMs) were isolated from BALB/c mice and cultured as previously described. […] Completely differentiated BMDMs are obtained after 7 days of culture with media change every 2 days. Harvested cells are seeded onto 10 mm glass cover slips at 5 x 10^5 cells/ well of a 24 well plate in DMEM media (without LCM) and allowed to adhere overnight. BMDM cells are then infected overnight with LV82 L. donovani or L. mexicana (NR-51210) at a multiplicity of infection of 10. After infection, cells were washed three times with fresh media to remove extracellular promastigotes and treated with compounds for a 72-hour incubation. BMDM cells were then washed with phosphate buffered saline, fixed with ice-cold methanol, and stained with Giemsa (5% v/v in water). The cover slips with stained cells are mounted onto glass slides and imaged on EVOS XL (100X, Thermo Fisher Scientific). Leishmania amastigotes per 100 macrophages were determined in a blinded manner.
smiles,measurement,setting,value
O=C(CNCc1cccc(F)c1)Nc1ccc(-n2cc(C(F)(F)F)nc2-c2ccc(-c3ccc(C(F)(F)F)cc3)cc2)cc1 [Compound 197],effect on L. mexicana extracellular promastigote viability,[1],no effect
same,MIC50,"[1]; Leishmania mexicana, 72-hour incubation",> 200 µM
same,"affinity capture abundance of lysozyme, Log2 fold change",lysozyme,6.57
same,direct effects on extracellular promastigote viability,[2],some direct reduction
same,IC50,"[3]; Leishmania mexicana, Macrophage, 72 h",< 2000 nM
same,IC50,[3],1700 nM
